Results as given in ChEMBL document CHEMBL5338815 (J Med Chem, 2023).

Key:
[1] = molecular target: T1, Histone-lysine N-methyltransferase EHMT2 (Homo sapiens, UniProt Q96KQ7); test: Inhibition of G9a (unknown origin) by AlphaLISA assay
T1 sequence (Q96KQ7 whole entry): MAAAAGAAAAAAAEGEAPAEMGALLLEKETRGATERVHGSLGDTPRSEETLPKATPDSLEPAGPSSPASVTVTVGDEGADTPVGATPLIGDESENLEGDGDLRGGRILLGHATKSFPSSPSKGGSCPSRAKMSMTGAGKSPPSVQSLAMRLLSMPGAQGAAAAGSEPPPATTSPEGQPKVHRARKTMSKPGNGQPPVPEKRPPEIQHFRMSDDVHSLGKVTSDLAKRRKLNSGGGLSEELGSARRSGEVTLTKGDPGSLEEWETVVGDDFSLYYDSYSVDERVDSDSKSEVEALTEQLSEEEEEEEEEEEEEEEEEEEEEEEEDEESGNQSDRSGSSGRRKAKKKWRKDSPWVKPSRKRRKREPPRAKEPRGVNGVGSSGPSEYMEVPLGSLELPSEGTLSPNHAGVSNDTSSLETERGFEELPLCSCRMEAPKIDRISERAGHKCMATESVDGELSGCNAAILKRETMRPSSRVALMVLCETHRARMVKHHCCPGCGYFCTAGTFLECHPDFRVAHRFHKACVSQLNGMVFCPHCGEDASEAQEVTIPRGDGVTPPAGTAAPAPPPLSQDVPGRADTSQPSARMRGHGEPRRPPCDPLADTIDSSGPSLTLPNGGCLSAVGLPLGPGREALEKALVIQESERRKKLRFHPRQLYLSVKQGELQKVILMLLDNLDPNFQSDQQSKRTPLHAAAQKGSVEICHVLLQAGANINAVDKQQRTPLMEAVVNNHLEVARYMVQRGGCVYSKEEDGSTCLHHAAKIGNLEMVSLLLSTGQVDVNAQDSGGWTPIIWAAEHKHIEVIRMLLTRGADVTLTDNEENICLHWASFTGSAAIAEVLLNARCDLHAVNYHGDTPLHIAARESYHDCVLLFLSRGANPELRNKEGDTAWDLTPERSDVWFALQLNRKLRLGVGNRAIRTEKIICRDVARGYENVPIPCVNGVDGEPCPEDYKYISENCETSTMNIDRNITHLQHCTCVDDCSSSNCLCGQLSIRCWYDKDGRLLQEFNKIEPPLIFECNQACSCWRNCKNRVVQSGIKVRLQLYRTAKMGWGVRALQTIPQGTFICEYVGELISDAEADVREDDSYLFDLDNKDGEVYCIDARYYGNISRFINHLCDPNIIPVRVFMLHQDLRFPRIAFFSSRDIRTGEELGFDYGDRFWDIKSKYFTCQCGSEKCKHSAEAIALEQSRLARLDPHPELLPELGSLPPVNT

PANC-1 [2] = test: Antiproliferative activity against human PANC-1 cells assessed as cell viability measured after 24 hrs by CCK-8 assay; type: functional, cell-based; conditions: PANC-1, 24 h
[3] = molecular target: Protein arginine N-methyltransferase 5 (Homo sapiens, UniProt O14744); test: Inhibition of PRMT5 (unknown origin)
Chain of Protein arginine N-methyltransferase 5 (O14744 whole entry): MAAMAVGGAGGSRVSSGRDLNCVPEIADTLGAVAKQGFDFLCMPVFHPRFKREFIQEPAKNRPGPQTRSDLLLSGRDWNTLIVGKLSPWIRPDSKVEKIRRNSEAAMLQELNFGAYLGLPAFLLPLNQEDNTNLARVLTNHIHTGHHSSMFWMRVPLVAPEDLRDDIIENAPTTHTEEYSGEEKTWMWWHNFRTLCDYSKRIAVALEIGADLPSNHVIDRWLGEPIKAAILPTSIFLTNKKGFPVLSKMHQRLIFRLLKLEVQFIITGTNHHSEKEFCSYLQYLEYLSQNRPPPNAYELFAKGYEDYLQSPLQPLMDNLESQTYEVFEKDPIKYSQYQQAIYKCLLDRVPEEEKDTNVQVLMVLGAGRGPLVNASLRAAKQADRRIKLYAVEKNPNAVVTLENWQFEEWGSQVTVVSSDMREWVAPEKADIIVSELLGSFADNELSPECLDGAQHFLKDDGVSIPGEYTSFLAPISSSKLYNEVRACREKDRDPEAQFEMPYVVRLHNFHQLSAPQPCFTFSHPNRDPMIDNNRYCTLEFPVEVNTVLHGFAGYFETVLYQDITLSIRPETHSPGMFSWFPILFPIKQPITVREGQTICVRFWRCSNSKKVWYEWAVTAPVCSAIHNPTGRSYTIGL

[4] = molecular target: T2, Histone-lysine N-methyltransferase EHMT2 (Homo sapiens) (UniProt Q96KQ7); test: Covalent inhibition of recombinant G9a (unknown origin) assessed as adduct formation intensity by mass spectrometric analysis; conditions: time <= 16.0 hrs, TDE = time-dependent effect
T2 sequence (whole entry): T1 sequence (Q96KQ7 whole entry)

[5] = molecular target: T3, Histone-lysine N-methyltransferase EHMT1 (Homo sapiens) (UniProt Q9H9B1); test: Covalent inhibition of recombinant GLP (unknown origin) assessed as adduct formation intensity by mass spectrometric analysis; conditions: time <= 16.0 hrs, TDE = time-dependent effect
T3 sequence (whole entry): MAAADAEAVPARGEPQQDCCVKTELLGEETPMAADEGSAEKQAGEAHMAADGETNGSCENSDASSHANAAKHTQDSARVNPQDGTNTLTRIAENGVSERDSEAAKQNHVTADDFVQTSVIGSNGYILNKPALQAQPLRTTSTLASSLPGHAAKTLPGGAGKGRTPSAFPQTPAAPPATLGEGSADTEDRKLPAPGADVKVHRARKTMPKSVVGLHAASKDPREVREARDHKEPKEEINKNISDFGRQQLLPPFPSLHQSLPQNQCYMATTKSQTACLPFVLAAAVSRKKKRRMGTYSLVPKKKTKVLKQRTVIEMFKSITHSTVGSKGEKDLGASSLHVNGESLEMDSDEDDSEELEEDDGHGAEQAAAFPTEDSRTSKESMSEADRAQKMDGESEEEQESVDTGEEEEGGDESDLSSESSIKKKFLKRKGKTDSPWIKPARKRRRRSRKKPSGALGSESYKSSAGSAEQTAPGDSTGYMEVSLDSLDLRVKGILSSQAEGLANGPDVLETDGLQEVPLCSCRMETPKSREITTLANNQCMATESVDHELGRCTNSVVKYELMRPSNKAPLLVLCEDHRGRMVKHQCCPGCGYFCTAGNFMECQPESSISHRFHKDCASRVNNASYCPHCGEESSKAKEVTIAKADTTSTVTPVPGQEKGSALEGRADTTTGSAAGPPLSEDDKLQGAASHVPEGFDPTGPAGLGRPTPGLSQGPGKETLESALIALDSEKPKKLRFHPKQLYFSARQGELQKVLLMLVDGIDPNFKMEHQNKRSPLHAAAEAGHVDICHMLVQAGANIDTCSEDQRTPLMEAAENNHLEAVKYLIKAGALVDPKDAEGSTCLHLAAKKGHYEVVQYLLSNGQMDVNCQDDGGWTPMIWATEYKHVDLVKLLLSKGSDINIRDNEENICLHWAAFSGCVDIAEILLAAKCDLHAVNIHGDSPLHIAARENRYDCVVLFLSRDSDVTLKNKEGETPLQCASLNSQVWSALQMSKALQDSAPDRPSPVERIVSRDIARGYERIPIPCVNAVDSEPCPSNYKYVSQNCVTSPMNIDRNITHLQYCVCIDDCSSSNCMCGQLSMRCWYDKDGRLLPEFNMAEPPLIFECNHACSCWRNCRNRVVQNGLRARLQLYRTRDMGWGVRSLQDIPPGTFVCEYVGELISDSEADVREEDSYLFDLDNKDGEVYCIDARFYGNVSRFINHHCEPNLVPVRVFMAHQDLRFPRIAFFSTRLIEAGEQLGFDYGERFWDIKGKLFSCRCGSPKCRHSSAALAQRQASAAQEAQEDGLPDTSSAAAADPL

MDA-MB-231 = test: Reduction in H3K9me2 level in human MDA-MB-231 cells at 10 uM by Western blot analysis; type: functional, cell-based; conditions: time 24-96 hrs, TDE = time-dependent effect
PANC-1 [6] = test: In vivo antitumor activity against human PANC-1 cells xenografted in Balb/c mouse model assessed as tumor growth inhibition at 2 mg/kg, ip treated for 22 days relative to control; type: functional; conditions: PANC-1, 528 h, time 22 day, read-out: TGI
[7] = Cmax in ICR mouse at 2 mg/kg, ip measured upto 24 hrs by LC-MS/MS analysis; type: ADME, organism-based; parameters: time < 24 hrs, dose 2 mg/kg, route ip; conditions: in vivo
[8] = AUC (0 to t) in ICR mouse at 2 mg/kg, ip measured upto 24 hrs by LC-MS/MS analysis; type: ADME, organism-based; parameters: dose 2 mg/kg, time < 24 hrs, route ip; conditions: in vivo
[9] = MRT in ICR mouse at 2 mg/kg, ip measured upto 24 hrs by LC-MS/MS analysis; type: ADME, organism-based; conditions: in vivo

IC50 [1]: 0.0085 µM
IC50 (PANC-1 [2]): 2.68 µM
IC50 [3]: > 20 µM
inhibition [4]: Tde
inhibition [5]: Tde
Cmax [7]: 0.316 µg/mL
AUC(0-t) at 24 h [8]: 0.208 µg·h/mL
MRT [9]: 36.6 min
Compound: C=CC(=O)N(C)c1nc(NC2CCN(C)CC2)c2cc(OC)c(OCCCN3CCCC3)cc2n1
inhibition (MDA-MB-231): Tde
inhibition in vivo at 2 mg/kg (PANC-1 [6]): 52.2%
